The source of these data is patent US12508271B2, “Prodrugs of 2-PMPA for healthy tissue protection during PSMA-targeted cancer imaging or radiotherapy” (The Johns Hopkins University, priority 2017, dated 2025).

For data set [1] the following is noted: cited from earlier work.
The target in data set [2] is T1, PSMA (Homo sapiens, UniProt Q04609). On the set-up: from tissue; host or cells: kidneys, salivary and lacrimal glands, and tumour lesions/metastases of living human subjects (PET / gamma imaging). As to conditions: without Tris-POC-2-PMPA; same center (Kratochwil et al., 2016); cited from earlier work.
T1 sequence (Q04609 whole entry): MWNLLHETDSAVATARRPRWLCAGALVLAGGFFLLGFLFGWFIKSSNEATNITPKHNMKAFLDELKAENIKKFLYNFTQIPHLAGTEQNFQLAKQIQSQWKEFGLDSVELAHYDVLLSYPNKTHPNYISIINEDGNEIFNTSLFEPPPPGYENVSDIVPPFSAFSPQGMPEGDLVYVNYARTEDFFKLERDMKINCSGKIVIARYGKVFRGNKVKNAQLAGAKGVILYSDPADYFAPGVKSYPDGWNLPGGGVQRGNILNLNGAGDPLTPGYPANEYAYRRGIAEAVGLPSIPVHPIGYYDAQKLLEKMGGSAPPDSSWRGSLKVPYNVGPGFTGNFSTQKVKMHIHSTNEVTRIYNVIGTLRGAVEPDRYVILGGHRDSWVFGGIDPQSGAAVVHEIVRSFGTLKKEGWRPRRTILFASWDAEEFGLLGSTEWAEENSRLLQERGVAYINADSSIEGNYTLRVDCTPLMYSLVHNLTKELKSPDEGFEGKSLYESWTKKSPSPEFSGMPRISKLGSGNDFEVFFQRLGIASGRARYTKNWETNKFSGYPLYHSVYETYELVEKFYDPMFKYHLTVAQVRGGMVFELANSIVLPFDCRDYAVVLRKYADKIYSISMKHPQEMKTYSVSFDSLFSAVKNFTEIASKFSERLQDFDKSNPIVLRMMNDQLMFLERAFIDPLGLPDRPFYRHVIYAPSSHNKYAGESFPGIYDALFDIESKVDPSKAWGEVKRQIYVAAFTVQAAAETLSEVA
The target in data set [3] is T1, PSMA. As to the kind of experiment: Tumor, kidney and salivary gland uptake of 68Ga-PSMA-617 in a prostate cancer patient with and without Tris-POC-2-PMPA pre-dosing (PET). It is filed as in vivo. Details: from tissue; host or cells: kidneys, salivary and lacrimal glands, and tumour lesions/metastases of living human subjects (PET / gamma imaging). As to conditions: PET 1 hour after administration, no Tris-POC-2-PMPA. Here is the method: One patient was PET imaged 1 h after injection of ^68Ga-PSMA-617 and quantified per SUVmax for tracer uptake in tumor, kidneys and salivary glands. On a subsequent day, the same patient was imaged using the same protocol but with pretreatment of 10 mg (0.1 mg/kgBW) Tris-POC-2-PMPA solution (in 2.5 mL of 30% ethanol) 15 min before application of the PET-tracer.

Setting [4] is: other mCRPC patients, literature.

As for `O=C([O-])CN1CCN(CC(=O)[O-])CCN(CC(=O)NCC2CCC(C(=O)N[C@@H](Cc3ccc4ccccc4c3)C(=O)NCCCC[C@H](NC(=O)N[C@@H](CCC(=O)O)C(=O)O)C(=O)O)CC2)CCN(CC(=O)[O-])CC1.[177Lu+3]` (some centres unmarked) [^177Lu-PSMA-617], in data set [1] (Hohberg et al., 2016), the “mean effective dose to the lacrimal glands” value is 2.82 Gy/GBq. Moreover, in data set [1] (setting [4]), the “absorbed dose to the kidneys, reported range” value is recorded as 0.53-0.99 Gy/GBq; the “absorbed dose to the red marrow, reported range” value is reported as 0.01-0.05 Gy/GBq; the “absorbed dose to the salivary glands, reported range” value is on record as 0.72-1.90 Gy/GBq. Moreover, on PSMA [2], the “mean absorbed dose to the kidneys, historical controls” value is 0.78 Gy/GBq; the “mean absorbed dose to the red marrow, historical controls” value is reported as 0.03 Gy/GBq; the “mean absorbed dose to the salivary glands, historical controls” value is 1.44 Gy/GBq.
Consider `O=C([O-])CN1CCN(CC(=O)[O-])CCN(CC(=O)NC[C@H]2CC[C@H](C(=O)N[C@@H](Cc3ccc4ccccc4c3)C(=O)NCCCC[C@H](NC(=O)N[C@@H](CCC(=O)O)C(=O)O)C(=O)O)CC2)CCN(CC(=O)[O-])CC1.[68Ga+3]` [^68Ga-PSMA-617, reference compound], for which, on PSMA [3], the “uptake in kidneys without pre-treatment” value is 35.4 SUVmax, the “uptake in metastases without pre-treatment” value is on record as 3.6-12.5 SUVmax, the “uptake in parotid gland without pre-treatment” value is 18.2 SUVmax and the “uptake in submandibular gland without pre-treatment” value was 23.1 SUVmax.
